Results reported in patent US20230159509A1 (Amathus Therapeutics, Inc., priority 2020, published 2023).

Target: T1, TRAP1 enzyme (Homo sapiens, UniProt Q12931)
T1 construct: 150 nM Trap1 enzyme was incubated with various concentrations of the test compound
T1 sequence (Q12931 60-704): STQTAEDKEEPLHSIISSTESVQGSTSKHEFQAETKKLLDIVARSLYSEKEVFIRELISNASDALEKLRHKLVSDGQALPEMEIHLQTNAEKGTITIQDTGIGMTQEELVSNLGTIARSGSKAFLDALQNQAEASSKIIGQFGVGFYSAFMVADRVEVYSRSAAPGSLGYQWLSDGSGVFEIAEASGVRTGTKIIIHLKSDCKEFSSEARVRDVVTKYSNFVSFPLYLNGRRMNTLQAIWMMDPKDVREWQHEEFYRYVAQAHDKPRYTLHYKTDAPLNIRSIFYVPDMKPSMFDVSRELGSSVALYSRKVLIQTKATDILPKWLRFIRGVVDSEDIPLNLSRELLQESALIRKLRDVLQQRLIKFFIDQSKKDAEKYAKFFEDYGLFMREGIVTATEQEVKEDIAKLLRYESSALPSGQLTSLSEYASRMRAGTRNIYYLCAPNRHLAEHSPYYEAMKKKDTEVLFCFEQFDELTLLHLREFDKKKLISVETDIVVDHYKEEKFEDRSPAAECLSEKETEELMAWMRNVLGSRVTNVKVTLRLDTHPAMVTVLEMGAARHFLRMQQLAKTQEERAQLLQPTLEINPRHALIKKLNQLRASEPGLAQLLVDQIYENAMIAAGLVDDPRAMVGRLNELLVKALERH
Test: ADP Glo assay of TRAP1 ATPase activity
Assay type: biochemical
Settings: for EC50: concentration for half maximal activation, read-out: ADP GLO DRC: GeoMean EC50; for Emax: maximal percent activation, read-out: ADP GLO DRC: Mean Emax
Description: Potency of test compounds to modulate the ATPase activity of TRAP1 enzyme was evaluated using ADP Glo assay. The assay is based on quantification of the ADP generated from ATP in the ATPase reaction. The assay is performed in two steps; first, after the ATPase reaction an equal volume of ADP-Glo™ Reagent is added to terminate the ATPase reaction and deplete the remaining ATP. Second, the Kinase Detection Reagent is added to simultaneously convert ADP to ATP and allow the newly synthesized ATP to be measured using a luciferase/luciferin reaction.
All the assays were carried out in a 384-well Proxiplate. The buffer used was 25 mM Pipes pH-7.5, 40 mM KCl, 0.05 mM MgCl2, 0.025% BSA, 0.316 mM EGTA, 0.003% Empigen, 0.01% Igepal. 150 nM Trap1 enzyme was incubated with various concentrations of the test compound (0.79 μM-100 μM) at 37° C. for 30 mins (except in blank wells). 20 μM ATP was added to each well to start the reaction. The plate was spun for 1 min at 1200 rpm and then incubated at 37° C. for 60 mins. 5 μl of ADP Glo reagent was added to all the wells and spun the plate for 1 min at 1200 rpm and kept it on a shaker at ambient temperature for 60 mins. 10 μl of kinase detection mix was added to all the wells and the plate was read for Luminescence at 495 nm. The amount of ADP released was estimated from ATP/ADP standard curve generated at the same experimental conditions. Emax (Maximal percent activation) and EC50 (concentration for half maximal activation) were estimated by fitting the dose response data to a sigmoidal curve fitting equation using Graphpad Prism software V. 8.

| SMILES | EC50 [µM] | Emax [%] |
| --- | --- | --- |
| COc1ncc(NC(=O)c2coc(-c3ccccc3)n2)cc1S(=O)(=O)Nc1c(C)cccc1F [compound 1485, N-(5-(N-(2-fluoro-6-methylphenyl)sulfamoyl)-6-methoxypyridin-3-yl)-2-phenyloxazole-4-carboxamide] | < 10 | 119 to 159 |
| COc1ncc(NC(=O)c2csc3c2CCCCC3)cc1S(=O)(=O)Nc1c(C)cccc1C [compound 1486, N-(5-(N-(2,6-dimethylphenyl)sulfamoyl)-6-methoxypyridin-3-yl)-5,6,7,8-tetrahydro-4H-cyclohepta[b]thiophene-3-carboxamide] | < 10 | 160 to 199 |
| COc1ncc(NC(=O)c2ncc(-c3ccccc3)o2)cc1S(=O)(=O)Nc1cc(F)c(F)cc1F [compound 1503] | 20 to 100 | 160 to 199 |
| COc1ncc(NC(=O)c2ncc(-c3ccccc3)o2)cc1S(=O)(=O)Nc1cc2ccccc2nc1C [compound 1511] | 20 to 100 | 119 to 159 |
| COc1ncc(NC(=O)c2ncc(-c3ccccc3)o2)cc1S(=O)(=O)Nc1cccc2cncc(C)c12 [compound 1513] | < 10 | 160 to 199 |
| COc1ncc(NC(=O)c2ncc(-c3ccccc3)o2)cc1S(=O)(=O)Nc1ccc(F)cc1C(C)C [compound 1514] | < 10 | 160 to 199 |
| COc1ncc(NC(=O)c2ncc(-c3ccccc3)o2)cc1S(=O)(=O)Nc1sc2c(c1C#N)CCCC2 [compound 1519] | 10 to 20 | 160 to 199 |
| COc1ncc(NC(=O)c2ncc(-c3ccccc3)o2)cc1S(=O)(=O)Nc1ccc2cnoc2c1 [compound 1525] | 20 to 100 | 200 to 300 |
| COc1ncc(NC(=O)c2ncc(-c3ccccc3)o2)cc1S(=O)(=O)Nc1cc(F)c(C#N)cc1F [compound 1538] | 20 to 100 | 119 to 159 |
| CCc1cccc2sc(NS(=O)(=O)c3cc(NC(=O)c4ncc(-c5ccccc5)o4)cnc3OC)nc12 [compound 1552] | 20 to 100 | 119 to 159 |
| COc1ncc(NC(=O)c2ncc(-c3ccccc3)o2)cc1S(=O)(=O)Nc1cc(-c2ccccc2C)nn1C [compound 1567] | 20 to 100 | 200 to 300 |
| COc1ncc(NC(=O)c2ncc(-c3ccccc3)o2)cc1S(=O)(=O)Nc1cc(-c2ccc(C)cc2)nn1C [compound 1568] | 20 to 100 | 200 to 300 |
| COc1ncc(NC(=O)c2ncc(-c3ccccc3)o2)cc1S(=O)(=O)Nc1cc(C)n(C(C)C)n1 [compound 1571] | 10 to 20 | 160 to 199 |
| COc1ncc(NC(=O)c2ncc(-c3ccccc3)o2)cc1S(=O)(=O)Nc1cccc2cnc(C)cc12 [compound 1624] | 10 to 20 | 160 to 199 |
| COc1ncc(NC(=O)c2ncc(-c3ccccc3)o2)cc1S(=O)(=O)Nc1cc(C2CCCCC2)no1 [compound 1640] | 10 to 20 | 160 to 199 |
| CCCC(C)c1cc(NS(=O)(=O)c2cc(NC(=O)c3ncc(-c4ccccc4)o3)cnc2OC)on1 (centres unmarked) [compound 1648] | 20 to 100 | 119 to 159 |
| COc1ncc(NC(=O)c2ncc(-c3ccccc3)o2)cc1S(=O)(=O)Nc1c(C)c(-c2ccccc2)nn1C [compound 1661] | 20 to 100 | 160 to 199 |
| COc1cccc(OC)c1NS(=O)(=O)c1cc(NC(=O)c2ncc(-c3ccccc3)o2)cnc1OC [compound 1706] | 10 to 20 | 119 to 159 |
| COc1ncc(NC(=O)c2csc(-c3ccccc3)n2)cc1S(=O)(=O)Nc1c(C)cnn1C [compound 1729] | 20 to 100 | 119 to 159 |
| COc1ncc(NC(=O)c2csc(-c3ccccc3)n2)cc1S(=O)(=O)Nc1cc(C(F)(F)F)n[nH]1 [compound 1746] | 20 to 100 | 200 to 300 |
| COc1ncc(NC(=O)c2csc(-c3ccccc3)n2)cc1S(=O)(=O)Nc1cc(C)n(C(C)C)n1 [compound 1754] | 10 to 20 | 160 to 199 |
| COCCOc1cc(NS(=O)(=O)c2cc(NC(=O)c3csc(-c4ccccc4)n3)cnc2OC)ccn1 [compound 1760] | 20 to 100 | 119 to 159 |
| COc1ncc(NC(=O)c2csc(-c3ccccc3)n2)cc1S(=O)(=O)Nc1cccn2nc(C)nc12 [compound 1768] | 20 to 100 | 200 to 300 |
| CCOc1cc(NS(=O)(=O)c2cc(NC(=O)c3csc(-c4ccccc4)n3)cnc2OC)ccn1 [compound 1773] | 20 to 100 | 119 to 159 |
| COc1ncc(NC(=O)c2csc(-c3ccccc3)n2)cc1S(=O)(=O)Nc1ccnc2cccnc12 [compound 1779] | 20 to 100 | 119 to 159 |
| COc1ncc(NC(=O)c2csc(-c3ccccc3)n2)cc1S(=O)(=O)Nc1ccc(C)nc1C [compound 1780] | 20 to 100 | 119 to 159 |

Further lines, results first:

| EC50 [µM] | Emax [%] | SMILES |
| --- | --- | --- |
| 20 to 100 | 119 to 159 | COc1ncc(NC(=O)c2csc(-c3ccccc3)n2)cc1S(=O)(=O)Nc1cc(C)no1 [compound 1784] |
| 20 to 100 | 200 to 300 | COc1ncc(NC(=O)c2csc(-c3ccccc3)n2)cc1S(=O)(=O)Nc1ccc(C#N)nc1 [compound 1785] |
| 20 to 100 | 119 to 159 | COc1ncc(NC(=O)c2csc(-c3ccccc3)n2)cc1S(=O)(=O)Nc1cc(C)cnc1C [compound 1792] |
| 10 to 20 | 200 to 300 | COc1ncc(NC(=O)c2ncc(-c3ccccc3)o2)cc1S(=O)(=O)Nc1c(C(C)C)ccnc1C(C)C [compound 1808] |
| 20 to 100 | 160 to 199 | CNc1ncc(C(F)(F)F)cc1NS(=O)(=O)c1cc(NC(=O)c2ncc(-c3ccccc3)o2)cnc1OC [compound 1824] |
| 10 to 20 | 200 to 300 | COc1ncc(NC(=O)c2csc(-c3ccccc3)n2)cc1S(=O)(=O)Nc1nc(C(C)(C)C)ns1 [compound 1839] |
| 20 to 100 | 119 to 159 | COc1cc(NS(=O)(=O)c2cc(NC(=O)c3csc(-c4ccccc4)n3)cnc2OC)ccn1 [compound 1878] |
| 20 to 100 | 160 to 199 | COc1ncc(NC(=O)c2csc(-c3ccccc3)n2)cc1S(=O)(=O)Nc1ccnc(C(F)(F)F)c1 [compound 1895] |
| 20 to 100 | 200 to 300 | COc1ncc(NC(=O)c2ncc(-c3ccccc3)o2)cc1S(=O)(=O)Nc1cc(F)c(C)cc1C#N [compound 1898] |
| 20 to 100 | 119 to 159 | COc1ncc(NC(=O)c2ncc(-c3ccccc3)o2)cc1S(=O)(=O)Nc1ccc2c(n1)CCC2 [compound 1908] |
| 20 to 100 | 119 to 159 | COc1ncc(NC(=O)c2csc(-c3ccccc3)n2)cc1S(=O)(=O)Nc1c(C#N)cnn1C [compound 1911] |
| 20 to 100 | 200 to 300 | COc1ncc(NC(=O)c2csc(-c3ccccc3)n2)cc1S(=O)(=O)Nc1nnn(Cc2ccccc2)n1 [compound 1912] |
| 20 to 100 | 119 to 159 | COc1ncc(NC(=O)c2csc(-c3ccccc3)n2)cc1S(=O)(=O)Nc1ccc2nn[nH]c2c1 [compound 1926] |
| 20 to 100 | 200 to 300 | COc1ncc(NC(=O)c2ccnc(Br)c2)cc1S(=O)(=O)Nc1c(C)cccc1C [compound 1935, 1,2-bromo-N-(5-(N-(2,6-dimethylphenyl)sulfamoyl)-6-methoxypyridin-3-yl)isonicotinamide] |
| < 10 | 119 to 159 | COc1ncc(NC(=O)c2coc(-c3ccc(F)cc3)n2)cc1S(=O)(=O)Nc1c(C)cc(F)cc1C [compound 1937, N-(5-(N-(4-fluoro-2,6-dimethylphenyl)sulfamoyl)-6-methoxypyridin-3-yl)-2-(4-fluorophenyl) oxazole-4-carboxamide] |
| 10 to 20 | > 300 | COc1ncc(NC(=O)c2ccnc(-c3cccnc3)c2)cc1S(=O)(=O)Nc1c(C)cccc1C [compound 1940, N-(5-(N-(2,6-dimethylphenyl)sulfamoyl)-6-methoxypyridin-3-yl)-[2,3′-bipyridine]-4-carboxamide] |
| < 10 | 160 to 199 | COc1ncc(NC(=O)c2coc(-c3ccccc3)n2)cc1S(=O)(=O)Nc1c(C)cccc1Cl [compound 1941, N-(5-(N-(2-chloro-6-methylphenyl)sulfamoyl)-6-methoxypyridin-3-yl)-2-phenyloxazole-4-carboxamide] |
